Test results published in US20120156771A1, “FUNCTIONAL DISRUPTION OF AN IMMUNOGLOBULIN GENE IN AN AVIAN EMBRYONIC STEM CELL” (Origen Therapeutics, Inc., priority 2002, published 2012).

Tested on: chicken embryonic stem cells
Experiment: Titration kill curve: morphology of cES cells under puromycin or neomycin selection
Assay type: cell-based
Parameters: key to Morphology of cES cells: ES: ES cells are present.; diff: ES cells are differentiated.; gone: no morphologically recognizable cells are present
Description: In a preferred embodiment, the concentration of puromycin required for selecting transfected cells is calculated as a titration kill curve. Titration kill curves for chicken embryonic stem cells are established by exposing cells in culture to puromycin concentrations varying from 0.0 to 1.0 μg/ml for 10 days (Table 7) and neomycin concentrations varying from 0.0 to 200 μg/ml (Table 8). The medium is changed every 2 days and fresh puromycin or neomycin is added. […] Puromycin concentrations of 0.3-1.0 μg/ml are used for selection of the transfected cultures. Neomycin concentrations over 40 μg/ml eliminated all cES cells within 7 days (Table 8).

Question: Which “Morphology of cES cells” value (neomycin 10 μg/ml, day 1 under selection) does the source give for neomycin here?
Answer: ES

Question: What about the “Morphology of cES cells” value (neomycin 10 μg/ml, day 2 under selection) of the same substance?
Answer: ES

Question: What about the “Morphology of cES cells” value (neomycin 10 μg/ml, day 3 under selection) of the same substance?
Answer: ES

Question: What about the “Morphology of cES cells” value (neomycin 10 μg/ml, day 4 under selection) of the same substance?
Answer: ES

Question: What about the “Morphology of cES cells” value (neomycin 10 μg/ml, day 5 under selection) of the same substance?
Answer: ES

Question: What about the “Morphology of cES cells” value (neomycin 10 μg/ml, day 6 under selection) of the same substance?
Answer: ES

Question: What about the “Morphology of cES cells” value (neomycin 10 μg/ml, day 7 under selection) of the same substance?
Answer: ES

Question: And the “Morphology of cES cells” value (neomycin 10 μg/ml, day 8 under selection)?
Answer: ES

Question: What about the “Morphology of cES cells” value (neomycin 10 μg/ml, day 9 under selection) of the same substance?
Answer: ES

Question: What about the “Morphology of cES cells” value (neomycin 10 μg/ml, day 10 under selection) of the same substance?
Answer: ES

Question: What about the “Morphology of cES cells” value (neomycin 20 μg/ml, day 1 under selection) of the same substance?
Answer: ES

Question: What about the “Morphology of cES cells” value (neomycin 20 μg/ml, day 2 under selection) of the same substance?
Answer: ES

Question: What about the “Morphology of cES cells” value (neomycin 20 μg/ml, day 3 under selection) of the same substance?
Answer: ES

Question: And the “Morphology of cES cells” value (neomycin 20 μg/ml, day 4 under selection)?
Answer: ES

Question: And the “Morphology of cES cells” value (neomycin 20 μg/ml, day 5 under selection)?
Answer: ES

Question: What about the “Morphology of cES cells” value (neomycin 20 μg/ml, day 6 under selection) of the same substance?
Answer: ES

Question: What about the “Morphology of cES cells” value (neomycin 20 μg/ml, day 7 under selection) of the same substance?
Answer: ES

Question: What about the “Morphology of cES cells” value (neomycin 20 μg/ml, day 8 under selection) of the same substance?
Answer: ES

Question: And the “Morphology of cES cells” value (neomycin 20 μg/ml, day 9 under selection)?
Answer: ES

Question: And the “Morphology of cES cells” value (neomycin 20 μg/ml, day 10 under selection)?
Answer: ES

Question: What about the “Morphology of cES cells” value (neomycin 30 μg/ml, day 1 under selection) of the same substance?
Answer: ES

Question: And the “Morphology of cES cells” value (neomycin 30 μg/ml, day 2 under selection)?
Answer: ES

Question: And the “Morphology of cES cells” value (neomycin 30 μg/ml, day 3 under selection)?
Answer: ES

Question: What about the “Morphology of cES cells” value (neomycin 30 μg/ml, day 4 under selection) of the same substance?
Answer: ES

Question: What about the “Morphology of cES cells” value (neomycin 30 μg/ml, day 5 under selection) of the same substance?
Answer: ES

Question: What about the “Morphology of cES cells” value (neomycin 30 μg/ml, day 6 under selection) of the same substance?
Answer: ES

Question: What about the “Morphology of cES cells” value (neomycin 30 μg/ml, day 7 under selection) of the same substance?
Answer: ES/Diff

Question: What about the “Morphology of cES cells” value (neomycin 30 μg/ml, day 8 under selection) of the same substance?
Answer: ES/diff

Question: What about the “Morphology of cES cells” value (neomycin 30 μg/ml, day 9 under selection) of the same substance?
Answer: Diff

Question: And the “Morphology of cES cells” value (neomycin 40 μg/ml, day 1 under selection)?
Answer: ES

Question: And the “Morphology of cES cells” value (neomycin 40 μg/ml, day 2 under selection)?
Answer: ES

Question: What about the “Morphology of cES cells” value (neomycin 40 μg/ml, day 3 under selection) of the same substance?
Answer: ES

Question: What about the “Morphology of cES cells” value (neomycin 40 μg/ml, day 4 under selection) of the same substance?
Answer: ES

Question: And the “Morphology of cES cells” value (neomycin 40 μg/ml, day 5 under selection)?
Answer: ES/Diff

Question: What about the “Morphology of cES cells” value (neomycin 40 μg/ml, day 7 under selection) of the same substance?
Answer: dead

Question: What about the “Morphology of cES cells” value (neomycin 40 μg/ml, day 8 under selection) of the same substance?
Answer: gone

Question: And the “Morphology of cES cells” value (neomycin 40 μg/ml, day 9 under selection)?
Answer: gone

Question: And the “Morphology of cES cells” value (neomycin 40 μg/ml, day 10 under selection)?
Answer: gone

Question: What about the “Morphology of cES cells” value (neomycin 50 μg/ml, day 1 under selection) of the same substance?
Answer: ES

Question: What about the “Morphology of cES cells” value (neomycin 50 μg/ml, day 2 under selection) of the same substance?
Answer: ES

Question: And the “Morphology of cES cells” value (neomycin 50 μg/ml, day 3 under selection)?
Answer: ES

Question: What about the “Morphology of cES cells” value (neomycin 50 μg/ml, day 4 under selection) of the same substance?
Answer: ES/Diff

Question: What about the “Morphology of cES cells” value (neomycin 50 μg/ml, day 5 under selection) of the same substance?
Answer: ES/Diff

Question: And the “Morphology of cES cells” value (neomycin 50 μg/ml, day 8 under selection)?
Answer: gone

Question: What about the “Morphology of cES cells” value (neomycin 50 μg/ml, day 9 under selection) of the same substance?
Answer: gone

Question: What about the “Morphology of cES cells” value (neomycin 50 μg/ml, day 10 under selection) of the same substance?
Answer: gone

Question: And the “Morphology of cES cells” value (neomycin 60 μg/ml, day 1 under selection)?
Answer: ES

Question: What about the “Morphology of cES cells” value (neomycin 60 μg/ml, day 2 under selection) of the same substance?
Answer: ES

Question: And the “Morphology of cES cells” value (neomycin 60 μg/ml, day 3 under selection)?
Answer: ES

Question: And the “Morphology of cES cells” value (neomycin 60 μg/ml, day 4 under selection)?
Answer: gone

Question: And the “Morphology of cES cells” value (neomycin 60 μg/ml, day 5 under selection)?
Answer: Gone

Question: And the “Morphology of cES cells” value (neomycin 60 μg/ml, day 6 under selection)?
Answer: gone

Question: What about the “Morphology of cES cells” value (neomycin 60 μg/ml, day 7 under selection) of the same substance?
Answer: gone

Question: What about the “Morphology of cES cells” value (neomycin 60 μg/ml, day 8 under selection) of the same substance?
Answer: gone

Question: What about the “Morphology of cES cells” value (neomycin 60 μg/ml, day 9 under selection) of the same substance?
Answer: gone

Question: And the “Morphology of cES cells” value (neomycin 60 μg/ml, day 10 under selection)?
Answer: gone

Question: And the “Morphology of cES cells” value (neomycin 100 μg/ml, day 1 under selection)?
Answer: ES/Diff

Question: What about the “Morphology of cES cells” value (neomycin 100 μg/ml, day 2 under selection) of the same substance?
Answer: Diff

Question: And the “Morphology of cES cells” value (neomycin 100 μg/ml, day 3 under selection)?
Answer: dead

Question: And the “Morphology of cES cells” value (neomycin 100 μg/ml, day 4 under selection)?
Answer: gone

Question: What about the “Morphology of cES cells” value (neomycin 100 μg/ml, day 5 under selection) of the same substance?
Answer: Gone

Question: What about the “Morphology of cES cells” value (neomycin 100 μg/ml, day 6 under selection) of the same substance?
Answer: gone

Question: And the “Morphology of cES cells” value (neomycin 100 μg/ml, day 7 under selection)?
Answer: gone

Question: What about the “Morphology of cES cells” value (neomycin 100 μg/ml, day 8 under selection) of the same substance?
Answer: gone

Question: And the “Morphology of cES cells” value (neomycin 100 μg/ml, day 9 under selection)?
Answer: gone

Question: And the “Morphology of cES cells” value (neomycin 100 μg/ml, day 10 under selection)?
Answer: gone

Question: And the “Morphology of cES cells” value (neomycin 150 μg/ml, day 2 under selection)?
Answer: dead

Question: What about the “Morphology of cES cells” value (neomycin 150 μg/ml, day 3 under selection) of the same substance?
Answer: dead

Question: What about the “Morphology of cES cells” value (neomycin 150 μg/ml, day 4 under selection) of the same substance?
Answer: gone

Question: What about the “Morphology of cES cells” value (neomycin 150 μg/ml, day 5 under selection) of the same substance?
Answer: Gone

Question: What about the “Morphology of cES cells” value (neomycin 150 μg/ml, day 6 under selection) of the same substance?
Answer: gone

Question: And the “Morphology of cES cells” value (neomycin 150 μg/ml, day 7 under selection)?
Answer: gone

Question: What about the “Morphology of cES cells” value (neomycin 150 μg/ml, day 8 under selection) of the same substance?
Answer: gone

Question: And the “Morphology of cES cells” value (neomycin 150 μg/ml, day 9 under selection)?
Answer: gone

Question: And the “Morphology of cES cells” value (neomycin 150 μg/ml, day 10 under selection)?
Answer: gone

Question: And the “Morphology of cES cells” value (neomycin 200 μg/ml, day 2 under selection)?
Answer: dead

Question: And the “Morphology of cES cells” value (neomycin 200 μg/ml, day 3 under selection)?
Answer: gone

Question: And the “Morphology of cES cells” value (neomycin 200 μg/ml, day 4 under selection)?
Answer: gone

Question: What about the “Morphology of cES cells” value (neomycin 200 μg/ml, day 5 under selection) of the same substance?
Answer: Gone

Question: What about the “Morphology of cES cells” value (neomycin 200 μg/ml, day 6 under selection) of the same substance?
Answer: gone

Question: And the “Morphology of cES cells” value (neomycin 200 μg/ml, day 7 under selection)?
Answer: gone

Question: And the “Morphology of cES cells” value (neomycin 200 μg/ml, day 8 under selection)?
Answer: gone

Question: And the “Morphology of cES cells” value (neomycin 200 μg/ml, day 9 under selection)?
Answer: gone

Question: And the “Morphology of cES cells” value (neomycin 200 μg/ml, day 10 under selection)?
Answer: gone

Question: And the “Neomycin concentrations that eliminated all cES cells” value (within 7 days)?
Answer: over 40 μg/ml
